The record followed here is US12018021B2 (UCB Biopharma SRL, priority 2018, dated 2024).

Bounds are passed on as bounds.

The IC50 is the midpoint of a concentration-inhibition curve.

IgE-Tb / sFcεRIα-Y131A-AF488, sequence (P01854 whole entry N146Q/N252Q): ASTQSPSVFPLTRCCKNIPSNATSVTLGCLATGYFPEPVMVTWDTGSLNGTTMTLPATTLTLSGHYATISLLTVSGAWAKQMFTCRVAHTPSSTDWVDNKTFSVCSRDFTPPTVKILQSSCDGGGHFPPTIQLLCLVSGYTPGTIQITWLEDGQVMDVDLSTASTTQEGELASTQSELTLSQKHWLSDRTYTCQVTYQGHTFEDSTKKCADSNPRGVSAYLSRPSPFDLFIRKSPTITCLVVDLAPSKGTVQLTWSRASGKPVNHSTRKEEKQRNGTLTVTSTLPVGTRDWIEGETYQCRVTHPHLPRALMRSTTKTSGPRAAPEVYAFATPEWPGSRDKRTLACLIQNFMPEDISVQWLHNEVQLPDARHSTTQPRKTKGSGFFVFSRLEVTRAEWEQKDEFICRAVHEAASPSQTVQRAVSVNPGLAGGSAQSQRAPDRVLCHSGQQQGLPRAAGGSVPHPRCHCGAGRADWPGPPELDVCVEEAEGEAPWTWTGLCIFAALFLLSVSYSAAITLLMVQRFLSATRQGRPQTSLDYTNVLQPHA

The assay has as its target IgE-Tb / sFcεRIα-Y131A-AF488 (Homo sapiens, UniProt P01854, N146Q/N252Q). In words: IgE-Tb / sFcεRIα-Y131A-AF488 FRET assay (protocol for examples 234 to 501). It counts as binding. The settings on record: examples 234 to 501: compound with IgE-Tb 30 minutes before sFcεRIα-Y131A-AF488, incubated 18 hours at room temperature; read-out: Y131A FRET IC50 range. The procedure, abridged: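 Read-out is the 520/490 nm emission ratio (337 nm excitation) after 18 h at room temperature, background subtracted, fitted four-parameter for IC50. Final reagents: 5 nM IgE-Tb, preincubated 30 min with compound (top typically 10 μM, 2% DMSO, 3-fold 10-point), plus 25 nM sFcεRIα-Y131A-AF488.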
Turning to `Cn1nc(C(F)F)cc1Nc1nncn1[C@H]1CCc2sc(NC(=O)[C@H]3C[C@H]3F)c(C(=O)NCC3CC3)c2C1` (single isomer, unassigned) [Example 363], the IC50 is below 1000 nM.
Turning to `Cn1nc(C(F)F)cc1Nc1nncn1[C@H]1CCc2sc(NC(=O)[C@@H]3C[C@H]3F)c(C(=O)NCC3CC3)c2C1` (single isomer, unassigned) [Example 367], the IC50 was below 1000 nM.
The value for `Cn1nc(OC(F)F)cc1Nc1nncn1[C@H]1CCc2sc(NC(=O)[C@H]3C[C@@H]3F)c(C(=O)NC[C@H]3CC3(F)F)c2C1` (single isomer, unassigned) [Example 374] was below 1000 nM; that for `Cn1nc(OC(F)F)cc1Nc1nncn1[C@H]1CCc2sc(NC(=O)[C@H]3C[C@@H]3F)c(C(=O)NC[C@@H]3CC3(F)F)c2C1` (single isomer, unassigned) [Example 375] was below 1000 nM; that for `Cn1nc(OC(F)F)cc1Nc1nncn1[C@H]1CCc2sc(NC(=O)[C@H]3C[C@@H]3F)c(C(=O)NC[C@H]3C[C@@H](F)C3)c2C1` (single isomer, unassigned) [Example 377] was below 1000 nM.
On to `Cn1nc(OC(F)F)cc1Nc1nncn1[C@H]1CCc2sc(NC(=O)[C@H]3C[C@@H]3F)c(C(=O)NC[C@H]3C[C@H](F)C3)c2C1` (single isomer, unassigned) [Example 378], for which the IC50 was below 1000 nM.
Take `Cn1nc(OC(F)F)cc1Nc1nncn1[C@H]1CCc2sc(NC(=O)[C@H]3C[C@@H]3F)c(C(=O)N[C@H]3C[C@H](F)C3)c2C1` (single isomer, unassigned) [Example 379]: the IC50 is below 1000 nM.
For the compound `Cn1nc(C(F)F)cc1Nc1nncn1[C@H]1CCc2sc(NC(=O)C3CC3)c(C(=O)NC[C@H]3CC3(F)F)c2C1` (single isomer, unassigned) [Example 382], the IC50 was below 1000 nM.
Turning to `Cn1nc(C(F)F)cc1Nc1nncn1[C@H]1CCc2sc(NC(=O)C3CC3)c(C(=O)NC[C@@H]3CC3(F)F)c2C1` (single isomer, unassigned) [Example 383], the IC50 was below 1000 nM.
For the compound `Cn1nc(C(F)F)cc1Nc1nncn1[C@H]1CCc2sc(NC(=O)C3CC3)c(C(=O)NC[C@@H]3CC34CC4)c2C1` (single isomer, unassigned) [Example 385], the IC50 was below 1000 nM.
Turning to `Cn1nc(C(F)F)cc1Nc1nncn1[C@H]1CCc2sc(NC(=O)C3CC3)c(C(=O)NC[C@H]3CC34CC4)c2C1` (single isomer, unassigned) [Example 386], the IC50 is below 1000 nM.
The value for `Cn1nc(C(F)(F)F)cc1Nc1nncn1[C@H]1CCc2sc(NC(=O)[C@H]3C[C@H]3F)c(C(=O)N[C@@H]3CC34CC4)c2C1` (single isomer, unassigned) [Example 393] was below 1000 nM; that for `Cn1nc(C(F)(F)F)cc1Nc1nncn1[C@H]1CCc2sc(NC(=O)[C@H]3C[C@H]3F)c(C(=O)N[C@H]3CC34CC4)c2C1` (single isomer, unassigned) [Example 394] was below 1000 nM; that for `Cn1nc(C(F)(F)F)cc1Nc1nncn1[C@H]1CCc2sc(NC(=O)[C@H]3C[C@H]3F)c(C(=O)NC[C@H]3CC3(F)F)c2C1` (single isomer, unassigned) [Example 397] was below 1000 nM.
With `Cn1nc(C(F)(F)F)cc1Nc1nncn1[C@H]1CCc2sc(NC(=O)[C@H]3C[C@H]3F)c(C(=O)NC[C@@H]3CC3(F)F)c2C1` (single isomer, unassigned) [Example 398], the IC50 was below 1000 nM.
On to `Cn1nc(C(F)F)cc1Nc1nncn1[C@H]1CCc2sc(NC(=O)[C@H]3CC34CC4)c(C(=O)NC[C@@H]3CC3(F)F)c2C1` (single isomer, unassigned) [Example 409], for which the IC50 was below 1000 nM.
As to `Cn1nc(C(F)F)cc1Nc1nncn1[C@H]1CCc2sc(NC(=O)[C@H]3CC34CC4)c(C(=O)NC[C@H]3CC3(F)F)c2C1` (single isomer, unassigned) [Example 410], the IC50 is below 1000 nM.
In the case of `CCOC(=O)c1c(NC(=O)[C@H]2CC23CC3)sc2c1C[C@@H](n1cnnc1Nc1cc(C(F)F)nn1C)CC2` (single isomer, unassigned) [Example 417], the IC50 was below 1000 nM.
The value for `C[C@H]1c2c(sc(NC(=O)C3CC3)c2C(=O)NCC2CC2)CC[C@@H]1n1cnnc1Nc1cc(C(F)(F)F)nn1C` (single isomer, unassigned) [Example 422, (4R*,5R*)-2-(cyclopropanecarbonylamino)-N-(cyclopropylmethyl)-4-methyl-5-[3-[[2-methyl-5-(trifluoromethyl)pyrazol-3-yl]amino]-1,2,4-triazol-4-yl]-4,5,6,7-tetrahydrobenzothiophene-3-carboxamide] was below 1000 nM.
`Cn1nc(OC(F)F)cc1Nc1nncn1[C@H]1CCc2sc(NC(=O)C3CC3)c(C(=O)NC[C@H]3CC3(F)F)c2C1` (single isomer, unassigned) [Example 459]: the IC50 is below 1000 nM.
Next, `Cn1nc(OC(F)F)cc1Nc1nncn1[C@H]1CCc2sc(NC(=O)C3CC3)c(C(=O)NC[C@@H]3CC3(F)F)c2C1` (single isomer, unassigned) [Example 460]: below 1000 nM; `COc1cc(Nc2nncn2[C@H]2CCc3sc(NC(=O)[C@H]4C[C@@H]4C)c(C(=O)NC[C@H]4CC4(F)F)c3C2)n(C)n1` (single isomer, unassigned) [Example 463]: below 1000 nM; `COc1cc(Nc2nncn2[C@H]2CCc3sc(NC(=O)[C@H]4C[C@@H]4C)c(C(=O)NC[C@@H]4CC4(F)F)c3C2)n(C)n1` (single isomer, unassigned) [Example 464]: below 1000 nM.
Next, `Cn1nc(C(F)F)cc1Nc1nncn1[C@H]1CCc2sc(NC(=O)[C@H]3C[C@H](F)C3)c(C(=O)N[C@@H]3CC34CC4)c2C1` (single isomer, unassigned) [Example 469]: below 1000 nM; `Cn1nc(C(F)F)cc1Nc1nncn1[C@H]1CCc2sc(NC(=O)[C@H]3C[C@H](F)C3)c(C(=O)N[C@H]3CC34CC4)c2C1` (single isomer, unassigned) [Example 470]: below 1000 nM; `Cn1nc(C(F)F)cc1Nc1nncn1[C@H]1CCc2sc(NC(=O)[C@H]3C[C@H](F)C3)c(C(=O)NC[C@H]3C[C@H](F)C3)c2C1` (single isomer, unassigned) [Example 474]: below 1000 nM.
Take `Cn1nc(C(F)F)cc1Nc1nncn1[C@H]1CCc2sc(NC(=O)[C@H]3C[C@@H](F)C3)c(C(=O)NC[C@H]3C[C@H](F)C3)c2C1` (single isomer, unassigned) [Example 475]: the IC50 was below 1000 nM.
`Cn1nc(C(F)F)cc1Nc1nncn1[C@H]1CCc2sc(NC(=O)[C@H]3C[C@H](F)C3)c(C(=O)N[C@H]3C[C@H](F)C3)c2C1` (single isomer, unassigned) [Example 476]: the IC50 was below 1000 nM.
For the compound `Cn1nc(C(F)F)cc1Nc1nncn1[C@H]1CCc2sc(NC(=O)[C@H]3C[C@@H](F)C3)c(C(=O)N[C@H]3C[C@H](F)C3)c2C1` (single isomer, unassigned) [Example 477], the IC50 is below 1000 nM.
Turning to `Cn1nc(OC(F)F)cc1Nc1nncn1[C@H]1CCc2sc(NC(=O)[C@H]3C[C@H](F)C3)c(C(=O)N[C@@H]3CC34CC4)c2C1` (single isomer, unassigned) [Example 484], the IC50 is below 1000 nM.
Next, `Cn1nc(OC(F)F)cc1Nc1nncn1[C@H]1CCc2sc(NC(=O)[C@H]3C[C@H](F)C3)c(C(=O)N[C@H]3CC34CC4)c2C1` (single isomer, unassigned) [Example 485]: below 1000 nM; `Cn1nc(OC(F)F)cc1Nc1nncn1[C@H]1CCc2sc(NC(=O)[C@H]3C[C@H](F)C3)c(C(=O)NC[C@H]3CC3(F)F)c2C1` (single isomer, unassigned) [Example 488]: below 1000 nM; `Cn1nc(C(F)F)cc1Nc1nncn1[C@H]1CCc2sc(NC(=O)C3CC3)c(C(=O)N[C@H]3CC34CC4)c2C1` (single isomer, unassigned) [Example 495]: below 1000 nM.
The value for `Cn1nc(C(F)(F)F)cc1Nc1nncn1C1COc2sc(NC(=O)C3CC3)c(C(=O)NCC3CC3)c2C1` (single isomer, unassigned) [Example 501, (3R*)-6-(cyclopropanecarbonylamino)-N-(cyclopropylmethyl)-3-[3-[[2-methyl-5-(trifluoromethyl)pyrazol-3-yl]amino]-1,2,4-triazol-4-yl]-3,4-dihydro-2H-thieno[2,3-b]pyran-5-carboxamide (* or S)] was below 1000 nM; that for `Cc1ccc(N2CC[C@H](Nc3nncn3[C@H]3CCc4sc(NC(=O)C5CC5)c(C(=O)NCC5CC5)c4C3)C2)nn1` [Example 240, (5S)-2-cyclopropaneamido-N-(cyclopropylmethyl)-5-(3-{[(35)-1-(6-methylpyridazin-3-yl)pyrrolidin-3-yl]amino}-4H-1,2,4-triazol-4-yl)-4,5,6,7-tetrahydro-1-benzothiophene-3-carboxamide] was below 1000 nM; that for `O=C(NCC1CC1)c1c(NC(=O)C2CC2)sc2c1C[C@@H](n1cnnc1N[C@H]1CCN(c3cnccn3)C1)CC2` [Example 241, (5S)-2-(cyclopropanecarbonylamino)-N-(cyclopropylmethyl)-5-[3-[[(3S)-1-pyrazin-2-ylpyrrolidin-3-yl]amino]-1,2,4-triazol-4-yl]-4,5,6,7-tetrahydrobenzothiophene-3-carboxamide] was below 1000 nM.
For `O=C1NCc2c(Nc3nncn3[C@H]3CCc4sc(NC(=O)C5CC5)c(C(=O)NCC5CC5)c4C3)cccc21` [Example 244, (5S)-2-cyclopropaneamido-N-(cyclopropylmethyl)-5-{3-[(1-oxo-2,3-dihydro-1H-isoindol-4-yl)amino]-4H-1,2,4-triazol-4-yl}-4,5,6,7-tetrahydro-1-benzothiophene-3-carboxamide], the IC50 is below 1000 nM.
